From US20060030611A1, “Enoximone sulfoxide enantiomers and their use in the treatment of PDE-III mediated diseases” (Myogen, Inc., priority 2004, published 2006)
pIC50: −log10 of the molar value. Read-outs that look alike come from different tables or passages of the source.

Columns and labels:
[1] = target: T1, PDE-III isolated from human platelets (Homo sapiens, UniProt Q14432); test: PDE-III inhibition, [3H]cAMP substrate; type: biochemical; conditions: triplicate at three concentrations over log scale, semi-quantitative
T1 construct: PDE-III isolated from human platelets; from tissue; host or cells: human platelets
T1 sequence (Q14432 whole entry): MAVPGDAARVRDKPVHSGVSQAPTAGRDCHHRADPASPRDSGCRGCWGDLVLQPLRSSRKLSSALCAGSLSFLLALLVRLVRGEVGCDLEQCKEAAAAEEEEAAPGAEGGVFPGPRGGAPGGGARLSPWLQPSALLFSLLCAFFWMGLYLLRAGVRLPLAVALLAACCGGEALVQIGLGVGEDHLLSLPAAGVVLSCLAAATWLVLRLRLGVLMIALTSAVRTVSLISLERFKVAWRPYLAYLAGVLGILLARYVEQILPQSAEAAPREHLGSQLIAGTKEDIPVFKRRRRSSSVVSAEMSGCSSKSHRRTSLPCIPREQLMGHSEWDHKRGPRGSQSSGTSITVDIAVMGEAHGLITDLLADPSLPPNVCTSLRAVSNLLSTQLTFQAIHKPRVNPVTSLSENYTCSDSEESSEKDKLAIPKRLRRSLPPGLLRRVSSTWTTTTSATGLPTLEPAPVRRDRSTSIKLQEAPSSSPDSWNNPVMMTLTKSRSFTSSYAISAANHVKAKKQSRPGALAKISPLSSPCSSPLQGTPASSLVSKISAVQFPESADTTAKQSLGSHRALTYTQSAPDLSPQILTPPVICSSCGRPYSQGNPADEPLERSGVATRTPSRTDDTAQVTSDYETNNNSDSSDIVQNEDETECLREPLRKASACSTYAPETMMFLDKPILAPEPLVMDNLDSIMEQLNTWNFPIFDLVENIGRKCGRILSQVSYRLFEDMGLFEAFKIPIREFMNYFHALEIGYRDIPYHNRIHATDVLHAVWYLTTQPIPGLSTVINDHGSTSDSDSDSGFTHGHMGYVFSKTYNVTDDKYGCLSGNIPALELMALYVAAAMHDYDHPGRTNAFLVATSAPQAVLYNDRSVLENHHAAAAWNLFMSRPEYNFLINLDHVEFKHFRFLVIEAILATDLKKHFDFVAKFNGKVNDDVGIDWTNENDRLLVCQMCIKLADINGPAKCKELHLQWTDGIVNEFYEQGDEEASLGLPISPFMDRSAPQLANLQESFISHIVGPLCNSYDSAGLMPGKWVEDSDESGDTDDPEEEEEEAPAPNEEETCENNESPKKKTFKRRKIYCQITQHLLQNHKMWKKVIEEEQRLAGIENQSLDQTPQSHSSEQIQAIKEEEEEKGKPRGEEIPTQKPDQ
Method: Enoximone Sulfoxide enantiomer was tested for its ability to inhibit the action of PDE-III isolated from human platelets. The substrate was [^3H]cAMP+cAMP, which is converted by PDE-III to […] and then […] can be quantified. Assays were done in triplicate at three different concentrations over log scale, allowing semi-quantitative measurement of IC50.

[2] = system: trabeculae from the right ventricular free wall of explanted human hearts; test: Peak contractile force of isolated human right ventricular trabeculae in muscle bath; type: cell-based; conditions: 37° C., 1.0 Hz field stimulation, increasing concentrations
Method: Explanted human hearts were obtained from transplant recipients (n=7) and from nonfailing donor hearts (n=1). After excision, hearts were placed immediately into ice cold Tyrode's solution and aerated with 95% O2 and 5% CO2. Trabeculae between 1-3 mm in width and 7-10 mm in length were excised from the right ventricular free wall. Subsequently trabeculae were mounted in a multi-chamber muscle bath in oxygenated Tyrode's solution at 37° C. The trabeculae were placed under 1 gram of resting tension and a field stimulation of 1.0 Hz. […] Peak contractile forces were recorded at 10 minute intervals for a total of 1½ hours. Following experimentation, trabeculae were frozen in liquid N2.

men who suffer from ED = conditions: ED of psychogenic or organic etiology, clinical studies; cited from earlier work
PDE-III = conditions: cited from earlier work
[3] = cited from earlier work; for average steady-state plasma concentration: oral

SMILES: Cc1[nH]c(=O)[nH]c1C(=O)c1ccc([S@@+](C)[O-])cc1 [(R)-(+)-enantiomer of enoximone sulfoxide, 1,3-Dihydro-4-methyl-5-[(4-methylsulfinyl)-benzoyl]-2H-imidazol-2-one hydrate]
- pIC50 [1]: 3.97
- peak contractile force (net, T=0 baseline subtracted) [2]: 550 mg of tension

SMILES: CC(C)NCC(O)c1ccc(O)c(O)c1 (stereo not shown) [Isoproterenol]
- peak contractile force (net, T=0 baseline subtracted) [2]: > 1000 mg of tension

SMILES: Cc1[nH]c(=O)[nH]c1C(=O)c1ccc([S+](C)[O-])cc1.O (stereo not shown) [Sulfoxide Metabolite 27996, 1,3-Dihydro-4-methyl-5-[(4-methylsulfinyl)-benzoyl]-2H-imidazol-2-one hydrate]
- peak contractile force (net, T=0 baseline subtracted) [2]: 175 mg of tension

SMILES: CCCc1nn(C)c2c(=O)[nH]c(-c3cc(S(=O)(=O)N4CCN(C)CC4)ccc3OCC)nc12 [sildenafil, 5-[2-ethoxy-5-(4-methylpiperazin-1-ylsulphonyl)phenyl]-1-methyl-3-n-propyl-6,7-dihydro-1H-pyrazolo[4,3-d]pyrimidin-7-one]
- men with improved sexual function (men who suffer from ED): about 70%
- inhibition of PDE-III (PDE-III): negligible inhibition

SMILES: CSc1ccc(C(=O)c2[nH]c(=O)[nH]c2C)cc1 [Enoximone, 1,3-Dihydro-4-methyl-5-[4-(methylthio)benzoyl]-2H-imidazol-2-one]
- average steady-state plasma concentration ([3]; 50 mg every 8 hours): 115 ± 40 ng/mL
- average steady-state plasma concentration ([3]; 100 mg every 8 hours): 190 ± 78 ng/mL
- mean clearance ([3]; patients with cardiac failure): about 10 ml/min/kg
- Bioavailability ([3]; single oral dose of 3 mg/kg): about 55%
